{"source": "patent US20150125406A1", "about": "“TOPICAL SKIN CARE COMPOSITION” (JAFER LIMITED, priority 2012, published 2015)", "type_in_all_cases": "cell-based", "key": {"B16 melanocytes [1]": {"system": "B16 melanocytes", "experiment": "Melanin production/secretion in melanocytes, Study II", "conditions": "20X dilution of dilute stock solutions; 72 hours", "procedure": "(§1) Cells (B16 melanocytes) were plated in phenol-free Dulbecco's Modified Eagle's Medium (DMEM) supplemented with 5% fetal bovine serum (FBS) at 10,000 cells/well. After 24 hours, test material was added and the cells were incubated with the test material for 48 hours. The melanin was quantified by instrumentally measuring absorbance with a BIORAD microplate spectrophotometer 3550-UV at 490 nanometers. Cultures were also photographed (CANON REBEL digital camera). Statistical significance of the values was calculated using paired t-test and threshold statistical significance was fixed at p=0.05 and 15% difference as compare to the water control group. Cell numbers were measured using a sulforhodamine B method (described by Skehan et al, “New colorimetric cytotoxicity assay for anticancer-drug screening”, J. Natl Cancer Inst., 82:1107, 1990, the relevant disclosures of which are incorporated herein by reference). The colorimetric signal proportional to cell numbers was acquired with the microplate spectrophotometer 3550-UV at 550 nanometers.\nFollowing the general procedure of Study I, a further set of dilute aqueous stock solutions was prepared containing each component individually (Compositions 6M-O in Table 10). […] For comparison, a dilute stock solution of hydroquinone (Composition 6Q) was included. A 20-fold (20×) dilution (distilled water) of each stock solution was selected for the in vitro test to minimize or avoid cytotoxicity of melanocytes in the cell growth medium.\nDistilled water was used as the negative control. As a positive control for validating the test, a dilute stock solutions of kojic acid (0.2%, 0.04%) were prepared and a 20× dilution (0.01%, 0.002%) tested.\n(§2) The methodology of Study I was repeated, except that the test was terminated after 72 hours for quantifying melanin pigmentation."}, "B16 melanocytes [2]": {"system": "B16 melanocytes", "experiment": "Cell numbers by sulforhodamine B method, Study II", "conditions": "20X dilution of dilute stock solutions; 72 hours", "procedure": "as §1\nFollowing the general procedure of Study I, a further set of dilute aqueous stock solutions was prepared containing each component individually (Compositions 6M-O in Table 10). A stock solution containing a combinations of each component was prepared from the stock solutions of each component (Composition 6P in Table 10) to provide amounts representing the weight ratio of each component to one another present in a composition of Example 1-B as shown below in Note 1 to Table 10. For comparison, a dilute stock solution of hydroquinone (Composition 6Q) was included. A 20-fold (20×) dilution (distilled water) of each stock solution was selected for the in vitro test to minimize or avoid cytotoxicity of melanocytes in the cell growth medium.\nas §2"}, "B16 melanocytes [3]": {"system": "B16 melanocytes", "experiment": "Cell numbers by sulforhodamine B method, Study I", "conditions": "20X dilution of stock solutions; 48 hours incubation", "procedure": "(§3) One set of aqueous stock solutions was prepared containing each component individually (as supplied) in an amount representing the active concentration present in a composition of Example 1-B (Compositions 6A-C in Table 9). A corresponding second and third set of stock solutions was prepared, respectively containing two-times (Compositions 6E-G in Table 9) and four-times (Compositions I-K in Table 9) the amount of the foregoing concentrations. Combinations of each component were prepared from the stock solutions of each component (Compositions. 6D, 6H, and 6L in Table 9) to provide amounts representing the weight ratio of each component to one another present (active basis) in a composition of Example 1-B as shown below in Notes 1-3 of Table 9. A 20-fold (20×) dilution (distilled water) of each stock solution was selected for the in vitro test to minimize or avoid cytotoxicity of melanocytes in the cell growth medium.\nas §1"}, "B16 melanocytes [4]": {"system": "B16 melanocytes", "experiment": "Melanin production/secretion in melanocytes, Study I", "conditions": "48 hours incubation; for effect on pigmentation / inhibition of melanin production/secretion: 20X dilution of stock solutions", "procedure": "This example illustrates the synergistic efficacy of the combination of the complexion modifying components (a) 4-hexylresorcinol, (b) niacinamide and (c) 1-amino-ethylphosphinic acid, compared to the effect of the individual components, based on an in vitro evaluation of melanin production/secretion in melanocytes. Components (a), (b) and (c) were evaluated individually and in combination with one another as described below in Studies I and II, and in Tables 9 and 10.\nas §3\nComponent (c) as supplied is described in Note (a) to Table 2. As a positive control, stock solutions of kojic acid solutions were prepared at an active concentration of 2%, 0.5% and 0.1% to provide a concentration of 0.1%, 0.025% and 0.005%, respectively, at a 20× dilution. Distilled water was used as the negative control.\nas §1"}}}
{"compound": "Oc1ccc(O)cc1", "note": "[hydroquinone]", "values": [{"measurement": "inhibition of melanin production/secretion", "setting": "B16 melanocytes [1]", "result": "≥ 50", "unit": "%"}]}
{"compound": "CC(N)[PH](=O)O", "note": "(stereo not shown) [1-amino-ethylphosphinic acid]", "values": [{"measurement": "effect on cell numbers / cytotoxicity", "setting": "B16 melanocytes [2]", "result": "no inhibitory effect"}, {"measurement": "inhibitory effect on pigmentation", "setting": "B16 melanocytes [1]", "result": "no inhibitory effect"}, {"measurement": "effect on cell numbers / cytotoxicity", "setting": "B16 melanocytes [3]", "result": "no effect"}, {"measurement": "effect on pigmentation / inhibition of melanin production/secretion", "setting": "B16 melanocytes [4]", "result": "no effect"}]}
{"compound": "CCCCCCc1ccc(O)cc1O", "note": "[4-hexylresorcinol]", "values": [{"measurement": "effect on cell numbers / cytotoxicity", "setting": "B16 melanocytes [2]", "result": "cytotoxic"}, {"measurement": "effect on cell numbers / cytotoxicity", "setting": "B16 melanocytes [3]", "result": "cytotoxic or cytostatic"}]}
{"compound": "O=c1cc(CO)occ1O", "note": "[kojic acid]", "values": [{"measurement": "effect on cell numbers / cytotoxicity", "setting": "B16 melanocytes [2]", "result": "without significantly impacting cell proliferation"}, {"measurement": "inhibition of melanin production/secretion", "setting": "B16 melanocytes [1]", "result": "about 73%"}, {"measurement": "effect on cell numbers / cytotoxicity", "setting": "B16 melanocytes [3]", "result": "without significantly impacting cell proliferation"}, {"measurement": "effect on pigmentation / inhibition of melanin production/secretion", "setting": "B16 melanocytes [4]", "result": "dose-dependent pigmentation-inhibitory effect"}, {"measurement": "pigmentation expressed as % (water control 100%)", "setting": "B16 melanocytes [4]; 20X dilution", "result": "70-90%"}]}
{"compound": "NC(=O)c1cccnc1", "note": "[niacinamide]", "values": [{"measurement": "effect on cell numbers / cytotoxicity", "setting": "B16 melanocytes [2]", "result": "no inhibitory effect"}, {"measurement": "inhibitory effect on pigmentation", "setting": "B16 melanocytes [1]", "result": "no inhibitory effect"}, {"measurement": "effect on cell numbers / cytotoxicity", "setting": "B16 melanocytes [3]", "result": "no effect"}, {"measurement": "effect on pigmentation / inhibition of melanin production/secretion", "setting": "B16 melanocytes [4]", "result": "no effect"}]}
